Laboratory results: PubChem BioAssay (NCI)
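Grown in 96-well plates, cells were treated for 48 hours with each compound at five concentrations. Insufficient inhibition: endpoint recorded as highest concentration tested. GI50 = concentration required for 50% inhibition of growth. At the TGI there is no net growth.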

Key:
Test in all cases: NCI-60 cell line screen, 48 h
[1] = test system: MALME-3M melanoma
[2] = test system: SK-MEL-2 melanoma
[3] = test system: OVCAR-5 ovarian
[4] = test system: UO-31 renal
[5] = test system: NCI-H23 lung
[6] = test system: SW-620 colon
[7] = test system: MDA-MB-435
[8] = test system: OVCAR-4 ovarian
[9] = test system: RPMI-8226 leukemia
[10] = test system: SNB-75 CNS

SMILES	GI50 [1]	TGI [1]	GI50 [2]	TGI [2]	GI50 [3]	TGI [3]	GI50 [4]	TGI [4]	GI50 [5]	TGI [5]	GI50 [6]	TGI [6]	GI50 [7]	TGI [7]	GI50 [8]	TGI [8]	GI50 [9]	TGI [9]	TGI [10]	GI50 [10]
COc1ccc(/C=C/C(=O)c2ccc(OC)c(OC)c2)cc1O	15.8 µM	31.7 µM	14.9 µM	32.9 µM	4.94 µM	28.9 µM	5.83 µM	19.2 µM	9.91 µM	30.4 µM	3.09 µM	12.8 µM	5.22 µM	23.5 µM	8.45 µM	20.8 µM	3.19 µM	15.1 µM		
OCc1c[te]c(-c2ccccc2)c1		> 100 µM		85.5 µM		> 100 µM		79.4 µM		62.8 µM		> 100 µM				> 100 µM		86.8 µM	> 100 µM	
O=S(=O)(/N=c1/scc(-c2ccccc2)n1-c1ccccc1)c1ccc(N2N=C3c4ccccc4CC3C2c2cccs2)cc1 (stereo not given)			> 100 µM	> 100 µM	88.9 µM	> 100 µM	> 100 µM	> 100 µM	68 µM	> 100 µM	94.2 µM	> 100 µM	38.7 µM	> 100 µM	> 100 µM	> 100 µM	51 µM	> 100 µM	> 100 µM	> 100 µM
Cc1ccc(NC(=O)/C(Cl)=C(/Cl)C(=O)O)cc1		29.3 µM		37.6 µM		37.6 µM		31.8 µM		31.8 µM		29.9 µM				33.1 µM		49.8 µM	34.1 µM	
CC(=O)[CH-]C(=O)c1ccccc1.CC(=O)[CH-]C(=O)c1ccccc1.C[C@]12CCC(=O)C=C1CC[C@@H]1C2CC[C@@]2(C)C1CC[C@@H]2[O-].C[C@]12CCC(=O)C=C1CC[C@@H]1C2CC[C@@]2(C)C1CC[C@@H]2[O-].Cl.[Ti+4] (stereo not given in full)	20.1 µM	46.8 µM	12.7 µM	31.4 µM	11.8 µM	55.8 µM	16.5 µM	52.5 µM	16.2 µM	32.1 µM	17.5 µM	43.7 µM			23.4 µM	> 100 µM	18.8 µM	> 100 µM		
COc1cc([N+](=O)[O-])c(OC)cc1-c1nc2sc(Cl)cn2c1/C=N/NC1=NCCN1			22.9 µM	> 100 µM	0.878 µM	2.3 µM	0.966 µM		0.937 µM	2.42 µM			3.65 µM	> 100 µM						
COc1cc(/C=C2\C[C@H]3[C@@H]4CC=C5C[C@@H](O)CC[C@]5(C)[C@H]4CC[C@]3(C)[C@H]2O)ccc1OCCCn1ccnc1			32.7 µM	> 50 µM	7.14 µM	23.3 µM	2.12 µM	> 50 µM	9.31 µM	40.8 µM			3.52 µM	12.6 µM						
NCCNCc1c2ccccc2c(CNCCN)c2ccccc12		29.8 µM		29.1 µM		97.5 µM		> 100 µM		35.2 µM		> 100 µM								
Cc1ccc(Cl)c(Nc2ccccc2C(=O)O)c1Cl	23.1 µM	63.4 µM	26.3 µM	76 µM	31.9 µM	98.9 µM	19.3 µM	45.5 µM	21.6 µM	51.4 µM	34.4 µM	> 100 µM	23.8 µM	85.3 µM	29.9 µM	94.6 µM	26.6 µM	80.5 µM		
COc1ccc(C(=O)C(c2ccc(OCc3ccccc3)cc2)c2ccc(OCc3ccccc3)cc2)cc1		> 100 µM		> 100 µM		> 100 µM		> 100 µM		> 100 µM		> 100 µM				> 100 µM		> 100 µM	> 100 µM	
OCCN1CCN2C=C(C3CCCC4N(CCO)CCN34)CCC21 (stereo not given)		> 100 µM		> 75.6 µM		> 100 µM		> 100 µM		> 100 µM		> 67.9 µM				> 100 µM		44.9 µM	> 100 µM	
CC(=O)c1cc(C(=O)c2ccc3c(c2)Sc2ccccc2N3)c2cc(C)ccn12	0.0429 µM	> 100 µM	81.4 µM	> 100 µM			0.0515 µM	> 100 µM	0.237 µM	> 100 µM	0.0559 µM	> 100 µM			1.29 µM	> 100 µM	0.233 µM	> 100 µM	> 100 µM	0.0416 µM
Cc1cc(C)nc(NS(=O)(=O)c2ccc(Nc3c4ccc(Cl)cc4nc4c(C(=O)NCCN(C)C)cccc34)cc2)n1		> 100 µM				> 100 µM		> 100 µM		> 100 µM		> 100 µM				> 100 µM		> 100 µM	> 100 µM	
O=C(Nc1ccccc1)c1cc(S(=O)(=O)Nc2nc3ccccc3o2)c(SCc2ccccc2)cc1Cl			23.6 µM	57.3 µM	22.5 µM	43.3 µM	17.8 µM	48.5 µM	21.2 µM	44.9 µM	17.1 µM	37.7 µM	19 µM	37.7 µM	33.8 µM	> 100 µM	15.4 µM	46.8 µM	66.9 µM	25.3 µM
O=C(/C(=C\c1ccc(Cl)cc1)c1ccccc1)c1ccccc1		> 100 µM		75 µM		> 100 µM		> 100 µM		> 100 µM		> 100 µM				> 100 µM		> 100 µM	> 100 µM	
CCCCCCCCCCCCCCCCC(=O)O.CCCCCCCCCCCCCCCCCC(=O)O.CCCCCCCCCCCCCCCCCC(=O)O.CCCCCCCCCCCCCCCCCC(=O)O.CCCCCCCCCCCCCCCCCC(=O)O.CO[CH-]OC12COC1CC(O)C1(C)C(O)C(OC(C)O)C3=C(C)C(OC(=O)C(O)C([NH-])c4ccccc4)CC(O)(C(OC(=O)c4ccccc4)C21)C3(C)C.[Cu+].[Zn].[Zn].[Zn].[Zn].[Zn] (stereo not given)	0.00947 µM	6.91 µM	< 0.0118 µM	11.2 µM	0.0113 µM	4.22 µM	0.487 µM	> 14.5 µM	0.0115 µM	> 14.5 µM	0.00662 µM	> 16.2 µM			2.35 µM	11.7 µM	0.00776 µM	> 25 µM	0.0211 µM	< 0.0025 µM
